Converted amounts (≈) assume the structure as drawn.
Biological target: T1, α-glucosidase type I from S. cerevisiae
T1 construct: gene MAL12
Assay: chromogenic pNPG hydrolysis, absorbance at […] nm, 96-well plate
Format: biochemical, Saccharomyces cerevisiae
Details: substrate p-nitrophenyl-α-D-glucopyranoside (20 µL of 5 mM stock), 0.1 M phosphate buffer pH 6.9, 37 °C, 15 min preincubation

- IC50: 3698.0 ± 76.5 µg/mL (≈ 5.73 mM)
Structure (SMILES): C[C@H]1O[C@H](O[C@H]2[C@H](O)[C@@H](O)[C@@H](O[C@H]3[C@H](O)[C@@H](O)C(O)O[C@@H]3CO)O[C@@H]2CO)[C@H](O)[C@@H](O)[C@@H]1N[C@H]1C=C(CO)[C@@H](O)[C@H](O)[C@H]1O (stereo partly shown) [Acarbose]
